Experimental data published in ChEMBL document CHEMBL1201862, “PubChem BioAssay data set” (2004).
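Each compound was tested at five concentrations against cells in 96-well plates for 48 hours. Here, GI50 denotes the concentration required for 50% inhibition of growth.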 The source made the active and inactive calls. Cut-off read from the data, not from the text of the source: active = GI50 up to about 1.1 µM and inactive = higher.

Tests used:
Experiment in all cases: DTP human tumour cell line panel, 48 h
[1] = tested on: Malme-3M
[2] = tested on: UACC-62
[3] = tested on: UO-31
[4] = tested on: RXF 393
[5] = tested on: SF-268
[6] = tested on: SN12C
[7] = tested on: HCC 2998
[8] = tested on: NCI/ADR-RES
[9] = tested on: SK-OV-3
[10] = tested on: U-251
[11] = tested on: OVCAR-8
[12] = tested on: SK-MEL-2
[13] = tested on: HCT-15
[14] = tested on: HOP-62
[15] = tested on: A549
[16] = tested on: SF-539
[17] = tested on: HOP-92
[18] = tested on: IGROV-1
[19] = tested on: 786-0
[20] = tested on: MDA-MB-435

Measured: GI50

CCN(CC)CCCC(C)Nc1c2ccc(Cl)cc2nc2cc(Cl)ccc12 (configuration not stated)
inactive: [1] 12.2 µM | [2] 6.89 µM | [3] 3.57 µM | [4] 3.23 µM | [5] 4.9 µM | [6] 4.66 µM | [7] 2.16 µM | [8] 3.44 µM | [9] 5.6 µM | [10] 5.09 µM | [11] 4.55 µM | [12] 15.7 µM | [14] 8.18 µM | [15] 4.78 µM | [16] 4.34 µM | [17] 2.77 µM | [18] 4.76 µM
3.04 µM: [13]

CCOC(=O)/C(C#N)=C(/NNc1ccccc1)c1ccncc1C(=O)O
> 22.7 µM: [13]
inactive: [1] > 100 µM | [2] 5.15 µM | [3] 4.49 µM | [4] > 100 µM | [19] > 100 µM | [5] > 100 µM | [6] > 100 µM | [7] > 22.4 µM | [9] > 100 µM | [10] > 100 µM | [11] > 32.4 µM | [12] > 75.2 µM | [20] 5.68 µM | [14] > 100 µM | [15] > 52.7 µM | [16] 24.7 µM | [17] > 100 µM | [18] > 100 µM

O=C(O)c1ccc2c(c1)Cc1cc([N+](=O)[O-])ccc1-2
> 100 µM: [13]
inactive: [1] > 100 µM | [2] > 100 µM | [3] 93.1 µM | [19] > 100 µM | [5] > 100 µM | [6] > 100 µM | [7] > 100 µM | [8] > 100 µM | [9] > 100 µM | [10] > 100 µM | [11] 59.7 µM | [12] > 100 µM | [20] > 100 µM | [14] > 100 µM | [15] > 100 µM | [16] > 100 µM | [17] 30.5 µM | [18] > 100 µM

NC(=O)NC(=O)Nc1ccc(Br)cc1
28 µM: [13]
inactive: [1] > 15.8 µM | [2] 2.92 µM | [3] 22.8 µM | [19] 20.5 µM | [5] > 6.93 µM | [6] > 67.5 µM | [7] > 21.9 µM | [8] > 30.8 µM | [9] > 100 µM | [10] 11.7 µM | [11] > 13.7 µM | [12] 13.2 µM | [20] 9.57 µM | [14] > 15.8 µM | [15] > 16.6 µM | [16] > 17.3 µM | [17] > 100 µM | [18] 16.7 µM

CSc1c(C#N)c2n(c3ccccc3[n+]2C)c2ncccc12
21.5 µM: [13]
inactive: [1] 19.4 µM | [2] 17.6 µM | [3] 16.1 µM | [4] 17.9 µM | [19] 17.7 µM | [5] 29.4 µM | [6] 21.2 µM | [7] 30.1 µM | [8] 28.4 µM | [9] 36.1 µM | [10] 24 µM | [11] 22.3 µM | [12] 20.1 µM | [20] 32 µM | [14] 23.4 µM | [15] 12.5 µM | [18] 24.7 µM

CC(C)(C)OC/C=C(/CO)[C@@H]1C=C[C@H](O)C1
> 100 µM: [13]
inactive: [1] > 100 µM | [2] > 100 µM | [3] > 100 µM | [19] > 100 µM | [5] > 100 µM | [6] > 100 µM | [7] > 100 µM | [8] > 100 µM | [9] > 100 µM | [10] > 100 µM | [12] > 100 µM | [20] > 100 µM | [14] > 100 µM | [15] > 100 µM | [16] > 100 µM

CC(C)CCNC(=O)c1ccc(CNC(=O)/C=C/c2ccc(-c3ccccc3[N+](=O)[O-])o2)cc1
> 100 µM: [13]
inactive: [2] 16 µM | [3] 76.7 µM | [4] > 100 µM | [19] 28.6 µM | [5] 18.6 µM | [6] > 100 µM | [7] > 100 µM | [8] 28.2 µM | [9] > 100 µM | [10] 56.8 µM | [11] 26.6 µM | [12] 95.7 µM | [20] 34.9 µM | [14] 24.3 µM | [15] 68.2 µM | [17] > 10 µM

Nc1ncc2c(n1)-c1ccccc1OC2NC1CC1 (configuration not stated)
inactive: [2] > 100 µM | [3] > 100 µM | [4] > 100 µM | [19] > 100 µM | [5] > 100 µM | [6] > 100 µM | [8] > 100 µM | [9] > 100 µM | [10] > 100 µM | [11] > 100 µM | [12] > 100 µM | [20] > 100 µM | [15] > 100 µM | [16] > 100 µM | [17] > 100 µM | [18] > 100 µM
> 100 µM: [13]

COc1ccc2cc1Oc1ccc(cc1)CC1c3cc(OC)c(cc3CCN1C)Oc1c(OC)c(OC)cc3c1C(C2)N(C)CC3 (configuration not stated)
inactive: [1] 11.4 µM | [2] 12.8 µM | [3] 9.42 µM | [19] 13.1 µM | [5] 12.9 µM | [6] 9.02 µM | [7] 9.62 µM | [8] 14 µM | [9] 29.4 µM | [10] 10.2 µM | [11] 12.4 µM | [12] 12.8 µM | [20] 12 µM | [15] 17.5 µM | [16] 8.95 µM | [17] 16.3 µM | [18] 18.8 µM
9.06 µM: [13]

O=C(Nc1ccc(Cl)cc1)C(=O)C1=C(O)c2ccccc2OC1
inactive: [2] > 100 µM | [3] > 100 µM | [19] > 100 µM | [5] > 100 µM | [6] > 100 µM | [7] > 100 µM | [8] > 100 µM | [9] > 100 µM | [10] > 100 µM | [11] > 100 µM | [12] > 100 µM | [20] > 100 µM | [15] > 100 µM | [16] > 100 µM | [17] > 100 µM | [18] > 100 µM
> 100 µM: [13]
active: [1] 0.665 µM

O=C(c1ccccc1)N1CCN(C(=S)N(C(=O)c2ccccc2)c2ccccc2)C1=S
inactive: [1] 5.13 µM | [2] 3.76 µM | [3] 2.56 µM | [19] 2.09 µM | [5] 3.45 µM | [6] 3.18 µM | [7] 6.5 µM | [8] 5.16 µM | [9] 15.5 µM | [10] 6.79 µM | [11] 3.13 µM | [12] 7.41 µM | [20] 3.84 µM | [14] 10.3 µM | [15] 5.26 µM | [16] 2.62 µM | [17] 6.37 µM | [18] 3.52 µM
2.18 µM: [13]

CC1(N2CCOCC2)CC2C(=[N+]1[O-])CCC/C2=N/O (configuration not stated)
> 100 µM: [13]
inactive: [1] > 100 µM | [2] > 100 µM | [3] > 100 µM | [4] > 100 µM | [19] > 100 µM | [5] > 100 µM | [6] > 100 µM | [7] > 100 µM | [8] > 100 µM | [9] > 100 µM | [10] > 100 µM | [11] > 100 µM | [12] > 100 µM | [20] > 100 µM | [14] > 100 µM | [15] > 100 µM | [16] > 100 µM | [18] > 100 µM

CCN(CC)COC(=S)S
> 100 µM: [13]
inactive: [1] 55.8 µM | [2] > 83 µM | [3] 62.5 µM | [19] 33.3 µM | [5] > 78 µM | [6] > 100 µM | [7] > 49.9 µM | [8] > 88.1 µM | [9] > 100 µM | [10] 30.3 µM | [11] 42.4 µM | [12] 1.82 µM | [20] 38.3 µM | [14] 48.8 µM | [15] > 100 µM | [16] 90.6 µM | [17] > 100 µM | [18] 89.7 µM

CC1C(c2ccccc2)O[B-](F)(c2ccccc2)[NH+]1C (configuration not stated)
inactive: [1] > 100 µM | [2] > 100 µM | [3] > 100 µM | [19] > 100 µM | [5] > 100 µM | [6] > 100 µM | [7] > 100 µM | [8] > 100 µM | [9] > 100 µM | [10] > 100 µM | [11] > 100 µM | [20] > 100 µM | [14] > 100 µM | [15] > 100 µM | [17] > 100 µM | [18] > 100 µM
> 100 µM: [13]

Nc1nc(N)c2cc(S(=O)(=O)c3ccc4ccccc4c3)ccc2n1
active: [15] 0.718 µM
inactive: [1] 14.4 µM | [2] 2.57 µM | [3] 2.04 µM | [19] 3.66 µM | [5] 5.22 µM | [6] 7.69 µM | [7] > 100 µM | [8] 70.5 µM | [9] > 100 µM | [10] 3.24 µM | [11] 1.34 µM | [12] 43.4 µM | [20] 3.3 µM | [14] 4.63 µM | [16] 3.33 µM | [17] 5.86 µM | [18] 1.5 µM
3.93 µM: [13]

O=C1Cc2c([nH]c3ccc(Br)cc23)-c2cc(Br)ccc2N1
inactive: [2] > 100 µM | [3] > 100 µM | [19] > 100 µM | [5] > 100 µM | [7] > 100 µM | [8] > 100 µM | [9] > 100 µM | [10] > 100 µM | [11] > 100 µM | [12] > 100 µM | [20] > 100 µM | [15] > 100 µM | [16] > 100 µM | [17] > 100 µM
> 100 µM: [13]
